Assays:
[1] = 28-day repeat-dose toxicity study in mice; assay type: in vivo, Balb/c mice
Protocol: Administration groups of the compound YF027 of the present disclosure and its non-deuterated control compound A were set for a 28-day repeat-dose toxicity study in mice. Each compound was administered to 10 Balb/c mice (5 females and 5 males, purchased from Beijing Vital River Laboratory Animal Technology Co., Ltd.) by intragastric administration. The administration was performed once daily for 6 consecutive days a week for 4 consecutive weeks, and an 8% Tween 80 vehicle control group (10 Balb/c mice, 5 females and 5 males) was set for administration at the same volume using the same method. Table 12. Administration information of repeat-dose toxicity assay
During the administration period, the mice were observed every day. The body weight, appearance signs, behavior and activity, fecal traits, and local reactions at the site of administration were recorded. After the end of the administration, the gross anatomy was performed on the mice in the administration group and the control group. The serum of the mice was collected, and the heart, liver, spleen, kidney, lung, and brain tissues and organs were weighed to calculate organ coefficients. The tissue samples of all groups were subjected to histopathological detection, and the serum samples were analyzed for biochemical parameters of liver and kidney functions. The serum biochemical parameters included: alanine aminotransferase (ALT), aspartate aminotransferase (AST), alkaline phosphatase (ALP), urea (UREA), creatinine (CREA), total protein (TP), and albumin (ALB). Statistical analysis was performed to evaluate potential toxic effects of the compounds.

[2] = system: Mycobacterium tuberculosis H37Rv; assay type: in vivo, BALB/c mice

With `Cl.[2H]C1([2H])CCCC([2H])([2H])N1C([2H])([2H])c1c(O)cc(C(C)(C)C)c2oc3c4ccc(O)cc4oc(=O)c3c12` [YF027, 10-(tert-Butyl)-3,8-dihydroxy-7-((piperidin-1-yl-2,2,6,6-d4)methyl-d2)-6H-benzofuran[3,2-c]chromen-6-one hydrochloride] the “toxic response after repeated administration” value ([1]; 100 mg/kg for 28 consecutive days, mice) was “did not produce a significant toxic response”, the “mortality during the administration period” value ([1]; 100 mg/kg intragastric, once daily, 6 days a week, 4 weeks, Balb/c mice) was “no mice died” and the “toxicity compared with the non-deuterated compound A” value ([1]; same dosing conditions, 100 mg/kg, 28 days, mice) was “no increased toxicity was observed”. For the same compound, the “pulmonary Mycobacterium tuberculosis clearance rate” value ([2]; 100 mg/kg intragastrically, 4 weeks, mice) was 99.0% and the “reduction of pulmonary bacterial load” value ([2]; mouse, in vivo) was 1.98 log.

Reference: patent publication EP4775586A1, “DEUTERATED TETRACYCLIC DERIVATIVE AND USE THEREOF” (priority 2023, dated 2025)
